We go through five molecules from PMC5382548 (Scientific Reports, 2015).

Where “and” joins values, the source holds several entries; their conditions need not be identical. Equal values may be shown once. Read-outs that look alike come from different tables or passages of the source.

As a reminder, the IC50 is the concentration needed to halve the response being measured.

In experiment [1] the test system is HEK293T (embryonic kidney). The experiment is described as follows: MTS short-term cytotoxicity assay, HEK293T. The format is cell-based. The conditions noted are these: Homo sapiens, HEK-293T, 72 h, read-out: IC50 HEK293T. The protocol:
Short-term anti-proliferative assays were carried out by two different assays using a panel of human cancer and non-malignant human cell lines. […] The transformed human embryonic kidney cell line HEK293T (wt KRAS) was sensitive to all tested drugs, including TMPyP4, a cationic porphyrin established as a G4 ligand, as well as the anticancer drug 5-fluorouracil (5-FU).
HCT116 human colon carcinoma cells, SW620 human colorectal adenocarcinoma and HEK293 T human embryonic kidney cells were grown in Dulbecco's modified Eagle's medium (DMEM) supplemented with 10% fetal bovine serum, and 1% antibiotic/antimycotic (Invitrogen, Grand Island, NY, USA) and maintained at 37°C in a humidified atmosphere of 5% CO2. Cells were seeded in 96 well plates at 5.000 cells/well. Twenty-four hours after cell plating, media was removed and replaced with fresh media containing test compounds and 5-FU (Sigma), a common cytotoxic agent used in colon cancer treatmen, or vehicle control (DMSO). Following 72 h of compound exposure, cell viability was evaluated using the CellTiter 96 AQueous Non-Radioactive Cell Proliferation Assay (Promega, Madison, WI, USA), using 3-(4,5-dimethylthiazol-2-yl)-5-(3-carboxymethoxyphenyl)-2-(4-sulfophenyl)-2H-tetrazolium, inner salt (MTS) as previously described. Cell viability data were expressed as mean ± SEM or mean ± SD from at least three independent experiments. IC50 and IC65 values were determined using GaphPad Prism v.5.00 (GraphPad Software). (Performed at Cell Function and Therapeutic Targeting Group, iMed.ULisboa)

In experiment [2] the test system is double-stranded DNA (26ds). Kind of experiment: Spectrofluorimetric titration with 26ds DNA. The format is binding. The following applies: for Apparent association constant Ka (26ds): ligand 1 μM, K-cacodylate pH 7.4, 60 mM K+, 25°C; for Hill constant h (26ds): one-site saturation binding Hill slope model. The procedure:
To characterize the binding of IQc to DNA structures, spectrofluorimetric titration assays were performed with the non-substituted (2a), mono-alkyldiamine (2d) and di-alkyldiamine (3e) derivatives using un-labelled KRAS21R G4 and 26ds-DNA. […] Their fluorescence intensity was proportional to concentration up to 10 μM. […] The fluorescence titration data (Figure 4) was fitted to the Scatchard model[25] (Figure 4, insets). […] Scatchard plots of 2d and 3e (Figure 4b–c, insets) are all concave-down nonlinear curves, which may denote different positive cooperative binding sites in G4, with more than one equivalent and non-independent binding sites. […] Therefore, association constants for 2d and 3e were obtained from the one-site saturation binding Hill slope model (Figure 4b–c). These are apparent binding constants, i.e. they are macroscopic Ka which reflect the total binding.
Figure 4 Fluorescence data of (a) 2a, (b) 2d, and (c) 3e (1 μM) in K-cacodylate buffer (pH 7.4, containing 60 mM K^+) at 25°C, titrated with KRAS21R and HT21 G4s, and 26ds, fitted to the saturation binding equations and Scatchard model (insets).
Fluorescence data were collected with a λex of 290 nm and a λem around 475 nm for 2d and 3e, and a λex of 275 nm and a λem around 460 for 2a. Test compounds were prepared as 1 mM in HPLC-grade water (10% DMSO) stock solutions. The rest of the dilutions were performed using K-cacodylate buffer (pH = 7.4, containing 60 mM K^+). The G4 single-strand oligonucleotide sequences were initially diluted from the storage solution (100 μM) with K-cacodylate, to a stock solution at 25 μM. The titration data were obtained by adding aliquots of previously annealed G4 (heating to 95°C for 10 min, followed by slow cooling to RT) to a solution of the indolo[3,2-c]quinoline ligand (1 μM) in K-cacocylate buffer at 25°C (additional details in Supplementary Information).
Figure S7. Fluorescence titrations of 1 μM indolo[3,2-c]quinoline 2d (1µM) with KRAS21R G4 and 26ds DNA in K-cacodylate buffer pH 7.4, containing 60 mM K+ at 25 °C.
Concentration of DNA increase from the top to the bottom (grey lines) Excitation […]
Figure S8. Fluorescence titrations of 1 μM indolo[3,2-c]quinoline 3e (1µM) with KRAS21R […]
The titration data obtained were used to construct Scatchard plots with the concentration of bound and free ligand (Cb and Cf, respectively). […]
number of moles of ligand bound to 1 mol of G4 (r = Cb/CDNA) were calculated.
Saturation binding isotherms were represented as Scatchard plots, by plotting r/Cf versus r and evaluated according to the model of McGhee and von Hippel. Dissociation constants were determined by fitting the titration experimental data to one-site saturation binding equation or to one-site saturation binding to the Hill slope equation supplied with the GraphPad PRISM software (GraphPad, Version 5.00, San Diego, CA).
Association constants (Ka) were calculated from dissociation constants (Kd). Scatchard lines represented in the Scatchard plots were calculated from the data fitting to the binding equations (x = 0, y = Fmax/Kd; x = Fmax , y = 0; slope = -Ka). […]

As to `CCN(CC)CCCNc1ccc2c(c1)c1[nH]c3ccccc3c1c[n+]2C` [2d], in experiment [1] (MTS assay), the IC50 was determined as 640 nM. In experiment [2], the “Apparent association constant Ka (26ds)” value came to 2.8e+06 M⁻¹ and the “Hill constant h (26ds)” value was 1.5.

Take `CCN(CC)CCCNc1ccc2[nH]c3c(c[n+](C)c4ccc(NCCCN(CC)CC)cc34)c2c1.[Cl-]` [3d]: the IC50 in experiment [1] (MTS assay) was 6570 nM.

On to `C[n+]1ccc(-c2c3nc(c(-c4cc[n+](C)cc4)c4ccc([nH]4)c(-c4cc[n+](C)cc4)c4ccc([nH]4)c(-c4cc[n+](C)cc4)c4nc2C=C4)C=C3)cc1` [TMPyP4, reference compound], for which the IC50 in experiment [1] is 2970 nM.

As to `Cn1cc2c3ccccc3nc-2c2cc(Br)ccc21` [2a, 2-bromo-5-methyl-indolo[3,2-c]quinoline], the IC50 in experiment [1] (MTS assay) worked out at 300 nM. Moreover, in experiment [2], the “Apparent association constant Ka (26ds)” value is 0.8 × 10^6 M^−1 and 0.8/-- × 10^6 M^−1.

Consider `CCN(CC)CCCNc1ccc2c(c1)[nH]c1c2c[n+](C)c2ccc(NCCCN(CC)CC)cc12.[Cl-]` [3e], for which the IC50 in experiment [1] (MTS assay) was determined as 3120 nM. In experiment [2], the “Apparent association constant Ka (26ds)” value is 3.2e+06 M⁻¹ and the “Hill constant h (26ds)” value came to 2.5.
